Test results taken from patent US6517836B1, “Nitrophenylaziridine compounds and their use as prodrugs” (Auckland Uniservices Limited, priority 1998, dated 2003).

Each molecule was assayed on Chinese hamster fibroblast NR− line (T78-1), V79/4 transfected with an empty shuttle vector (assay: Cytotoxicity, 18 h drug exposure, V79 NR− line (T78-1)). Conditions: Cricetulus griseus; T78-1 cells, 18 h drug exposure; read-out: V-79 NR− IC50.
Type: cell-based
Text: (§1) The Chinese hamster fibroblast NR− line (T78-1) is a V79/4 Chinese hamster fibroblast transfected with an empty shuttle vector, while the NR+ line (T79-A3) is the corresponding NR transfectant. The human colon carcinoma NR− line (WIDR) is wild-type, while the NR+ line (WC14 10) is the corresponding NR transfectant. The human ovarian carcinoma NR− line (SKOV3) is wild-type, while the NR+ line (SC3.2) is the corresponding NR transfectant. EMT6 is a mouse mammary carcinoma line, and EN2A is the NR-transformed counterpart.
With `CS(=O)(=O)c1cc([N+](=O)[O-])c(N2CC2)cc1C(=O)NCC(O)CO` (stereo not drawn) [Compound 10, 5-(aziridin-1-yl)-N-(2,3-dihydroxypropyl)-2-(methylsulfonyl)-4-nitrobenzamide] the IC50 was 641 µM. For `O=C(NCC(O)CO)c1cc([N+](=O)[O-])cc([N+](=O)[O-])c1N1CC1` (stereo not drawn) [Compound 17, 2-(aziridin-1-yl)-N-(2,3-dihydroxypropyl)-3,5-dinitrobenzamide], the IC50 was 1440 µM. With `O=C(NCC(O)CO)c1cc(N2CC2)c([N+](=O)[O-])cc1[N+](=O)[O-]` (stereo not drawn) [Compound 2, N-(2,3-dihydroxypropyl)-5-(aziridin-1-yl)-2,4-dinitrobenzamide] the IC50 was 210 µM. For `NC(=O)c1cc([N+](=O)[O-])cc([N+](=O)[O-])c1N1CC1` [Compound 14, 2-(aziridin-1-yl)-3,5-dinitrobenzamide], the IC50 was 1080 µM.

The molecules below were run on Chinese hamster fibroblast NR+ line (T79-A3), NR transfectant (assay: Cytotoxicity, 18 h drug exposure, V79 NR+ line (T79-A3)). Conditions: Cricetulus griseus, Fibroblast; T79-A3 cells, 18 h drug exposure; read-out: V-79 NR+ IC50.
Type: cell-based
Text: as §1
For `CS(=O)(=O)c1cc([N+](=O)[O-])c(N2CC2)cc1C(=O)NCC(O)CO` (stereo not drawn) [Compound 10, 5-(aziridin-1-yl)-N-(2,3-dihydroxypropyl)-2-(methylsulfonyl)-4-nitrobenzamide], the IC50 was 8.8 µM. `O=C(NCC(O)CO)c1cc([N+](=O)[O-])cc([N+](=O)[O-])c1N1CC1` (stereo not drawn) [Compound 17, 2-(aziridin-1-yl)-N-(2,3-dihydroxypropyl)-3,5-dinitrobenzamide] gave an IC50 of 6 µM. Work on `O=C(NCC(O)CO)c1cc(N2CC2)c([N+](=O)[O-])cc1[N+](=O)[O-]` (stereo not drawn) [Compound 2, N-(2,3-dihydroxypropyl)-5-(aziridin-1-yl)-2,4-dinitrobenzamide] yielded an IC50 of 0.71 µM. Molecule `NC(=O)c1cc([N+](=O)[O-])cc([N+](=O)[O-])c1N1CC1` [Compound 14, 2-(aziridin-1-yl)-3,5-dinitrobenzamide] has an IC50 of 1.2 µM.

Same assay, conditions: T78-1 vs T79-A3; inter-experiment average
With `CS(=O)(=O)c1cc([N+](=O)[O-])c(N2CC2)cc1C(=O)NCC(O)CO` (stereo not drawn) [Compound 10, 5-(aziridin-1-yl)-N-(2,3-dihydroxypropyl)-2-(methylsulfonyl)-4-nitrobenzamide] the “V-79 ratio of IC50s” value was 87. For `O=C(NCC(O)CO)c1cc([N+](=O)[O-])cc([N+](=O)[O-])c1N1CC1` (stereo not drawn) [Compound 17, 2-(aziridin-1-yl)-N-(2,3-dihydroxypropyl)-3,5-dinitrobenzamide], the “V-79 ratio of IC50s” value was 208. For `O=C(NCC(O)CO)c1cc(N2CC2)c([N+](=O)[O-])cc1[N+](=O)[O-]` (stereo not drawn) [Compound 2, N-(2,3-dihydroxypropyl)-5-(aziridin-1-yl)-2,4-dinitrobenzamide], the “V-79 ratio of IC50s” value was 381. `NC(=O)c1cc([N+](=O)[O-])cc([N+](=O)[O-])c1N1CC1` [Compound 14, 2-(aziridin-1-yl)-3,5-dinitrobenzamide] was tested, and the “V-79 ratio of IC50s” value was 864.

What follows are molecules tested on human colon carcinoma NR− line (WIDR), wild-type (assay: Cytotoxicity, 18 h drug exposure, WiDr NR− line). Conditions: Homo sapiens; WIDR cells, 18 h drug exposure; read-out: WiDr NR− IC50.
Type: cell-based
Text: as §1
In the case of `CS(=O)(=O)c1cc([N+](=O)[O-])c(N2CC2)cc1C(=O)NCC(O)CO` (stereo not drawn) [Compound 10, 5-(aziridin-1-yl)-N-(2,3-dihydroxypropyl)-2-(methylsulfonyl)-4-nitrobenzamide], the IC50 is reported as 826 µM. `O=C(NCC(O)CO)c1cc([N+](=O)[O-])cc([N+](=O)[O-])c1N1CC1` (stereo not drawn) [Compound 17, 2-(aziridin-1-yl)-N-(2,3-dihydroxypropyl)-3,5-dinitrobenzamide] gave an IC50 of 878 µM. For `O=C(NCC(O)CO)c1cc(N2CC2)c([N+](=O)[O-])cc1[N+](=O)[O-]` (stereo not drawn) [Compound 2, N-(2,3-dihydroxypropyl)-5-(aziridin-1-yl)-2,4-dinitrobenzamide], the IC50 was 147 µM. Work on `NC(=O)c1cc([N+](=O)[O-])cc([N+](=O)[O-])c1N1CC1` [Compound 14, 2-(aziridin-1-yl)-3,5-dinitrobenzamide] yielded an IC50 of 1080 µM.

What follows are molecules tested on human colon carcinoma NR+ line (WC14 10), NR transfectant (assay: Cytotoxicity, 18 h drug exposure, WiDr NR+ line (WC14 10)). Conditions: Homo sapiens, WiDr; WC14 10 cells, 18 h drug exposure; read-out: WiDr NR+ IC50.
Type: cell-based
Text: as §1
Molecule `CS(=O)(=O)c1cc([N+](=O)[O-])c(N2CC2)cc1C(=O)NCC(O)CO` (stereo not drawn) [Compound 10, 5-(aziridin-1-yl)-N-(2,3-dihydroxypropyl)-2-(methylsulfonyl)-4-nitrobenzamide] has an IC50 of 26 µM. With `O=C(NCC(O)CO)c1cc([N+](=O)[O-])cc([N+](=O)[O-])c1N1CC1` (stereo not drawn) [Compound 17, 2-(aziridin-1-yl)-N-(2,3-dihydroxypropyl)-3,5-dinitrobenzamide] the IC50 was 12 µM. Work on `O=C(NCC(O)CO)c1cc(N2CC2)c([N+](=O)[O-])cc1[N+](=O)[O-]` (stereo not drawn) [Compound 2, N-(2,3-dihydroxypropyl)-5-(aziridin-1-yl)-2,4-dinitrobenzamide] yielded an IC50 of 3.7 µM. `NC(=O)c1cc([N+](=O)[O-])cc([N+](=O)[O-])c1N1CC1` [Compound 14, 2-(aziridin-1-yl)-3,5-dinitrobenzamide] gave an IC50 of 13 µM.

Same assay, conditions: WIDR vs WC14 10; inter-experiment average
In the case of `CS(=O)(=O)c1cc([N+](=O)[O-])c(N2CC2)cc1C(=O)NCC(O)CO` (stereo not drawn) [Compound 10, 5-(aziridin-1-yl)-N-(2,3-dihydroxypropyl)-2-(methylsulfonyl)-4-nitrobenzamide], the “WiDr ratio of IC50s” value is reported as 33. With `O=C(NCC(O)CO)c1cc([N+](=O)[O-])cc([N+](=O)[O-])c1N1CC1` (stereo not drawn) [Compound 17, 2-(aziridin-1-yl)-N-(2,3-dihydroxypropyl)-3,5-dinitrobenzamide] the “WiDr ratio of IC50s” value was 71. With `O=C(NCC(O)CO)c1cc(N2CC2)c([N+](=O)[O-])cc1[N+](=O)[O-]` (stereo not drawn) [Compound 2, N-(2,3-dihydroxypropyl)-5-(aziridin-1-yl)-2,4-dinitrobenzamide] the “WiDr ratio of IC50s” value was 49. With `NC(=O)c1cc([N+](=O)[O-])cc([N+](=O)[O-])c1N1CC1` [Compound 14, 2-(aziridin-1-yl)-3,5-dinitrobenzamide] the “WiDr ratio of IC50s” value was 85.

The molecules below were run on human ovarian carcinoma NR− line (SKOV3), wild-type (assay: Cytotoxicity, 18 h drug exposure, SKOV3 NR− line). Conditions: Homo sapiens, SK-OV-3; SKOV3 cells, 18 h drug exposure; read-out: SKOV NR− IC50.
Type: cell-based
Text: as §1
For `CS(=O)(=O)c1cc([N+](=O)[O-])c(N2CC2)cc1C(=O)NCC(O)CO` (stereo not drawn) [Compound 10, 5-(aziridin-1-yl)-N-(2,3-dihydroxypropyl)-2-(methylsulfonyl)-4-nitrobenzamide], the IC50 was 920 µM. Molecule `O=C(NCC(O)CO)c1cc([N+](=O)[O-])cc([N+](=O)[O-])c1N1CC1` (stereo not drawn) [Compound 17, 2-(aziridin-1-yl)-N-(2,3-dihydroxypropyl)-3,5-dinitrobenzamide] has an IC50 of 1300 µM. In the case of `O=C(NCC(O)CO)c1cc(N2CC2)c([N+](=O)[O-])cc1[N+](=O)[O-]` (stereo not drawn) [Compound 2, N-(2,3-dihydroxypropyl)-5-(aziridin-1-yl)-2,4-dinitrobenzamide], the IC50 is reported as 170 µM. In the case of `NC(=O)c1cc([N+](=O)[O-])cc([N+](=O)[O-])c1N1CC1` [Compound 14, 2-(aziridin-1-yl)-3,5-dinitrobenzamide], the IC50 is reported as 1700 µM.

What follows are molecules tested on human ovarian carcinoma NR+ line (SC3.2), NR transfectant (assay: Cytotoxicity, 18 h drug exposure, SKOV NR+ line (SC3.2)). Conditions: Homo sapiens; SC3.2 cells, 18 h drug exposure; read-out: SKOV NR+ IC50.
Type: cell-based
Text: as §1
`CS(=O)(=O)c1cc([N+](=O)[O-])c(N2CC2)cc1C(=O)NCC(O)CO` (stereo not drawn) [Compound 10, 5-(aziridin-1-yl)-N-(2,3-dihydroxypropyl)-2-(methylsulfonyl)-4-nitrobenzamide] showed an IC50 of 6.2 µM. `O=C(NCC(O)CO)c1cc([N+](=O)[O-])cc([N+](=O)[O-])c1N1CC1` (stereo not drawn) [Compound 17, 2-(aziridin-1-yl)-N-(2,3-dihydroxypropyl)-3,5-dinitrobenzamide] was tested, and the IC50 was 7.3 µM. With `O=C(NCC(O)CO)c1cc(N2CC2)c([N+](=O)[O-])cc1[N+](=O)[O-]` (stereo not drawn) [Compound 2, N-(2,3-dihydroxypropyl)-5-(aziridin-1-yl)-2,4-dinitrobenzamide] the IC50 was 2.3 µM. For `NC(=O)c1cc([N+](=O)[O-])cc([N+](=O)[O-])c1N1CC1` [Compound 14, 2-(aziridin-1-yl)-3,5-dinitrobenzamide], the IC50 was 6.1 µM.

Same assay, conditions: SKOV3 vs SC3.2; inter-experiment average
With `CS(=O)(=O)c1cc([N+](=O)[O-])c(N2CC2)cc1C(=O)NCC(O)CO` (stereo not drawn) [Compound 10, 5-(aziridin-1-yl)-N-(2,3-dihydroxypropyl)-2-(methylsulfonyl)-4-nitrobenzamide] the “SKOV ratio of IC50s” value was 159. `O=C(NCC(O)CO)c1cc([N+](=O)[O-])cc([N+](=O)[O-])c1N1CC1` (stereo not drawn) [Compound 17, 2-(aziridin-1-yl)-N-(2,3-dihydroxypropyl)-3,5-dinitrobenzamide] was tested, and the “SKOV ratio of IC50s” value was 184. In the case of `O=C(NCC(O)CO)c1cc(N2CC2)c([N+](=O)[O-])cc1[N+](=O)[O-]` (stereo not drawn) [Compound 2, N-(2,3-dihydroxypropyl)-5-(aziridin-1-yl)-2,4-dinitrobenzamide], the “SKOV ratio of IC50s” value is reported as 84. With `NC(=O)c1cc([N+](=O)[O-])cc([N+](=O)[O-])c1N1CC1` [Compound 14, 2-(aziridin-1-yl)-3,5-dinitrobenzamide] the “SKOV ratio of IC50s” value was 280.

The molecules below were run on EMT6 mouse mammary carcinoma line (assay: Cytotoxicity, 18 h drug exposure, EMT6 NR− line). Conditions: Mus musculus; EMT6 cells, 18 h drug exposure; read-out: EMT6 NR− IC50.
Type: cell-based
Text: as §1
`CS(=O)(=O)c1cc([N+](=O)[O-])c(N2CC2)cc1C(=O)NCC(O)CO` (stereo not drawn) [Compound 10, 5-(aziridin-1-yl)-N-(2,3-dihydroxypropyl)-2-(methylsulfonyl)-4-nitrobenzamide] showed an IC50 of 454 µM. `O=C(NCC(O)CO)c1cc(N2CC2)c([N+](=O)[O-])cc1[N+](=O)[O-]` (stereo not drawn) [Compound 2, N-(2,3-dihydroxypropyl)-5-(aziridin-1-yl)-2,4-dinitrobenzamide] showed an IC50 of 90 µM. With `NC(=O)c1cc([N+](=O)[O-])cc([N+](=O)[O-])c1N1CC1` [Compound 14, 2-(aziridin-1-yl)-3,5-dinitrobenzamide] the IC50 was 769 µM.

Each molecule was assayed on EN2A, NR-transformed counterpart of EMT6 (assay: Cytotoxicity, 18 h drug exposure, EMT6 NR+ line (EN2A)). Conditions: EMT6 vs EN2A; inter-experiment average.
Type: cell-based, mouse
Text: as §1
`CS(=O)(=O)c1cc([N+](=O)[O-])c(N2CC2)cc1C(=O)NCC(O)CO` (stereo not drawn) [Compound 10, 5-(aziridin-1-yl)-N-(2,3-dihydroxypropyl)-2-(methylsulfonyl)-4-nitrobenzamide] was tested, and the “EMT6 ratio of IC50s” value was 124. For `O=C(NCC(O)CO)c1cc(N2CC2)c([N+](=O)[O-])cc1[N+](=O)[O-]` (stereo not drawn) [Compound 2, N-(2,3-dihydroxypropyl)-5-(aziridin-1-yl)-2,4-dinitrobenzamide], the “EMT6 ratio of IC50s” value was 86. With `NC(=O)c1cc([N+](=O)[O-])cc([N+](=O)[O-])c1N1CC1` [Compound 14, 2-(aziridin-1-yl)-3,5-dinitrobenzamide] the “EMT6 ratio of IC50s” value was 626.

Same assay, conditions: Mus musculus, EMT6; EN2A cells, 18 h drug exposure; read-out: EMT6 NR+ IC50
In the case of `CS(=O)(=O)c1cc([N+](=O)[O-])c(N2CC2)cc1C(=O)NCC(O)CO` (stereo not drawn) [Compound 10, 5-(aziridin-1-yl)-N-(2,3-dihydroxypropyl)-2-(methylsulfonyl)-4-nitrobenzamide], the IC50 is reported as 3.7 µM. `O=C(NCC(O)CO)c1cc(N2CC2)c([N+](=O)[O-])cc1[N+](=O)[O-]` (stereo not drawn) [Compound 2, N-(2,3-dihydroxypropyl)-5-(aziridin-1-yl)-2,4-dinitrobenzamide] showed an IC50 of 1.1 µM. In the case of `NC(=O)c1cc([N+](=O)[O-])cc([N+](=O)[O-])c1N1CC1` [Compound 14, 2-(aziridin-1-yl)-3,5-dinitrobenzamide], the IC50 is reported as 1.3 µM.
